Entries after “also recorded” stand apart in the source; their conditions may differ.
Assays:
[1] = tested on: Normal Human Epidermal Keratinocytes (NHEKs); assay: Colonization of a standard acellular area (IBIDI chamber gap closure) by keratinocytes; type: cell-based; settings: for colonization of the cell-free area by NHEK, overall: all four concentrations (10^−7M to 10^−10M), vs ethanol control
Experimental: (§1) The study consists in an in vitro assay aiming to evaluate the properties of E4 and E2 at 4 concentrations each on keratinocytes and fibroblasts. In this assay, the measurement of the colonization of a standard acellular surface generated from a confluent monolayer of cells using a dedicated culture device (IBIDI chamber) is performed. The assay is performed in absence and in presence of a proliferation inhibitor to focus on cell proliferation and migration or on migration only, respectively.
The study was performed using cultures of Normal Human foreskin-derived Epidermal Keratinocytes (NHEKs, Lonza). The cells were grown in serum free Epilife medium (ThermoFisher Scientific) supplemented with Human Keratinocyte Growth Supplement (HKGS, ThermoFisher Scientific) and antibiotics. The cells were maintained in a humidified incubator at 37° C. with a 5% CO2 atmosphere.
(§2) Cells were plated in 2-well silicone inserts with a defined cell free gap (IBIDI chambers; IBIDI GmbH, 80209) that was previously inserted on 12-well culture plates. This culture device allows to create a standardized 500 μm±100 μm cell free gap for monitoring cell colonization. 24 h after seeding, when the culture reached high confluency, cells in the insert were treated, or not, with mitomycin C (MMC) at 10 μg/ml during 2 h. After these 2 hours, the insert was removed, and cells were treated with E2 or E4 in presence or not of MMC for additional 2 h. Then, if appropriate, the culture medium was removed and cells were treated with E2 or E4 for 22 h, in absence of MMC.
(§3) For the assay, keratinocytes were plated in Epilife medium without HKGS and all the treatments were performed in this medium. Fibroblasts were plated in DMEM medium containing only 2,5% of FBS and the treatments were performed in absence of FBS.
(§4) E2 and E4 were applied at 4 concentrations each (10^−7M, 10^−8M, 10^−9M, 10^−10M). In parallel, cells were treated with a positive control (HKGS 1% for human keratinocytes and PDGF-BB at 10 ng/ml for human fibroblasts).
(§5) To monitor cell colonization and to evaluate the gap closure rate, pictures of the gap were taken after different times: at time 0 h, corresponding to the beginning of the treatment with E2 or E4 and to the removal of the culture insert, at time 6 h and at time 24 h (corresponding to the end of the treatments with E2 or E4). Pictures were taken with a microscope Zeiss (Axiover 25-10× objective) and with a camera Invenio2EIII (DeltaPix—Lux-Optic). The colonized areas were quantified from the pictures by the use of the WimAsis platform—WimScratch software. For each insert, 3 pictures were taken at each time. As each condition was performed in triplicates, it means a total of 9 pictures per condition and per time point of acquisition

[2] = tested on: Normal Human Dermal Fibroblasts (NHDFs); assay: Colonization of a standard acellular area (IBIDI chamber gap closure) by fibroblasts; type: cell-based; settings: for NHDF Proliferation & Migration (colonization of the acellular area): absence of MMC, 6 h and 24 h; for colonized area, NHDF, positive reference: 10 ng/ml
Experimental: as §1
Normal Human forskin-derived Dermal Fibroblats (NHDFs, ATCC) cells were grown in phenol-free Dulbecco's Modified Eagle Medium (DMEM, ThermoFisher Scientific) supplemented with 10% of Foetal Bovine Serum (FBS, ThermoFisher Scientific), L-glutamine and antibiotics. The cells were maintained in a humidified incubator at 37° C. with a 5% CO2 atmosphere.
as §2, §3, §4, §5

[3] = tested on: IL-6 release from NHEKs; assay: PMA/A23187-induced IL-6 release from NHEKs (ELISA, normalized to viability); type: cell-based, human; settings: E2, 3 concentrations assessed (not specified); 24 h
Experimental: The Normal Human foreskin-derived Epidermal Keratinocytes (NHEKs, Lonza, 00192906), isolated from foreskin of 3 Caucasian donors, were grown in Epilife medium (Fisher Scientific, M-EPI-500-A) supplemented with Human Keratinocyte Growth Supplement (HKGS, Fisher Scientific, S-001-5) and antibiotics (Gentamycin, Fisher Scientific, 15710-049). The cells were maintained in a humidified incubator at 37° C. with a 5% CO2 atmosphere.
E4 and E2, provided as powder, were dissolved in 100% ethanol at 0.1M. They were then further diluted in ethanol and in culture medium to reach the appropriate concentrations. […] Practically, stock solutions 1000-fold concentrated were prepared in 100% ethanol, aliquoted and stored at −20° C. until cell application.
In order to induce the release of IL-6, NHEKs were exposed for 24 h with phorbol myristate acetate (PMA) at 10 ng/mL, in combination with calcium ionophore A23187 (Sigma Aldrich, C5722) at 2 μM. The treatments with the test or reference items were performed simultaneously with the inflammatory challenge. […] E4 was applied at 10^−4, 10^−5, 10^−6, 10^−7 and 10^−8 M and E2 at 10^−5, 10^−6, 10^−7, 10^−8 and 10^−9 M EtOH at 0.1% was tested as solvent control. Dexamethasone at 10 μM was used as anti-inflammatory reference. At the end of 24 h treatment, supernatants were harvested and stored at −20° C., and cell viability assay was assessed by MTS (see section 5). The kinetics of the treatments is outlined in FIG. 12. All the treatments were performed in triplicates (n=3).
The quantification of the release of inflammatory markers was performed using specific ELISA kits, based on standard curves, according to supplier's specifications. The results were then normalized to the corresponding cell viability (obtained by MTS assay).
The supplier's reference of the kits used for IL-6 quantification is as follows: IL-6, BioTechne, D6050.
At the end of the treatments and culture media collection, the viability of the cells was evaluated using the MTS (3-(4,5-dimethythiazol-2-yl)-5-(3-carboxy-methoxyphenyl)-2-(4-sulfophenyl)-2H-tetrazolium) assay. The effects of the treatments were compared to the untreated control condition and to the solvent control (EtOH 0.1%). The viability data were used in order to normalize the quantities of released inflammatory mediators.
NHEKs were treated as described in the methodology section. The quantification of IL-6 by ELISA was performed from the collected supernatants, following the instructions of the kit provider. Only 3 concentrations of the test items (chosen in accordance with the Sponsor following the results of the viability assay) were assessed in the ELISA.

[4] = tested on: mouse lymphoma cell line L5178Y TK^+/−; assay: Generation of reactive oxygen species (ROS) in mouse lymphoma cells; type: cell-based; settings: up to 100 μM; 3 h exposure; vs vehicle control
Experimental: The objective of the study was to investigate the generation of reactive oxygen species (ROS) induced by the test item, estetrol (E4), in a mouse lymphoma cell line L5178Y TK^+/−.
L5178Y TK^+/− cells in logarithmic phase of growth were plated in black 96 well cell culture plates at 1×10^4 cells in 90 μL of cell culture media. Controls and test item in triplicate were applied to the cells as a 10× concentrate in 10 μL of a 10% ethanol solution in PBS (final concentration of ethanol on plate was 1%). Cells were incubated for 3 hours at 37° C., 5% CO2, and the generation of ROS was evaluated by fluorescence with a ROS reagent: the ROS reagent was freshly prepared by dissolving one ampoule of reagent (50 μg) in 70 μL DMSO and further diluting this with 2.1 mL of pre-warmed PBS. 10 μL of ROS reagent was added to each well and the plate were shaken for 30 seconds in the dark. The plates were incubated approximately at 37° C., 5% CO2 for 1 h 30 min and fluorescence was read on a plate scanner with excitation at 492 nm and emission at 520 nm.

In the case of `C[C@]12CC[C@@H]3c4ccc(O)cc4CC[C@H]3[C@@H]1CC[C@@H]2O` [E2, 17β-estradiol, reference compound], the “effect on the gap closure by NHEK” value ([1]; 10^−7M to 10^−9 M, after 24 h of treatment, significant only for 10^−8M) is reported as “inhibitor effect on the gap closure”, the “colonization of the cell-free area by NHEK, overall” value ([1]; absence of MMC) is reported as “not able to significantly increase the colonization of the cell-free area; also recorded: no significant effect on keratinocyte proliferation or migration” and the “colonization of the cell-free area by NHEK, overall” value ([1]; presence of MMC) is reported as “not able to significantly increase the colonization of the cell-free area; also recorded: no significant effect on keratinocyte proliferation or migration”. For the same molecule, the “NHDF Proliferation & Migration (colonization of the acellular area)” value (shortened to “NHDF Proliferation & Migration”) ([2]; 10^−7M, vs ethanol control) was “increased the colonization of the acellular area; also recorded: significant activity”, the “NHDF Proliferation & Migration” value ([2]; 10^−8M, vs ethanol control) was “increased the colonization of the acellular area; also recorded: significant activity” and the “NHDF Proliferation & Migration” value ([2]; 10^−10M, vs ethanol control) was “increased the colonization of the acellular area; also recorded: significant activity”. For the same molecule, the “colonization of the cell-free gap by NHDF, overall” value ([2]; presence of MMC, all four concentrations (10^−7M to 10^−10M), vs ethanol control) was “not able to significantly increase the colonization of the cell-free gap” and the “PMA/A23187-induced IL-6 release” value [3] was “unaffected; also recorded: not observed”.

In the case of `OO` [hydrogen peroxide, reference compound], the “levels of ROS (controls)” value [4] is reported as “tendency to increase the levels of ROS”.

B1: PDGF-BB: positive control at 10 ng/ml for human fibroblasts (protein, UniProt P01127 82-190, looked up)
Platelet-derived growth …: SLGSLTIAEPAMIAECKTRTEVFEISRRLIDRTNANFLVWPPCVEVQRCSGCCNNRNVQCRPTQVQLRPVQVRKIEIVRKKPIFKKATVTLEDHLACKCETVAAARPVT
With B1 the “colonized area, NHDF, positive reference” value ([2]; in absence of MMC) was “significantly increases the colonized area” and the “colonized area, NHDF, positive reference” value ([2]; in presence of MMC) was “significantly increases the colonized area”.

— patent US20250325467A1, “COMPOSITIONS FOR PREVENTING OR TREATING SKIN AGING” (ESTETRA SRL, priority 2021, published 2025)
